In data set [1] the test system is progesterone receptor (PGR) mRNA expression in MCF-7 human breast cancer cells. Description: Antagonism of β-estradiol-stimulated progesterone receptor (PGR) mRNA expression in MCF-7 cells. Format: cell-based. The conditions noted are these: 1 μM compound, 24 h, 10 nM E2 alone set as 100%. As for the experimental part:
To investigate the effects of ligand binding on ER-mediated transcriptional activities, the triphenylethylene bisphenols were tested for their abilities to antagonize β-estradiol (E2) in a functional assay. […] In this commonly used assay, the progesterone receptor (PGR) mRNA expression is used for assessing estrogenic or antiestrogenic activity in MCF-7 human breast cancer cells. […] The PGR mRNA expression level with 10 nM E2 stimulation alone was set as 100%, and the antiestrogenic effects of the compounds was monitored by the reduction of β-estradiol-stimulated mRNA levels.
Cell Culture and Test Compound Treatment. […]
The MCF-7 cells treated with test compounds or experimental controls for 24 h were harvested for progesterone receptor (PGR) messenger ribonucleic acid (mRNA) extraction. […] The RNA concentration was measured using the Qubit RNA BR assay (Life Technologies Corp., Carlsbad, Calif.) for the Qubit 2.0 fluorometer (Life Technologies Corp., Carlsbad, Calif.). […]
Complementary deoxyribonucleic acid (cDNA) for the real-time quantitative polymerase chain reaction (PCR) assay was synthesized from DNase-treated total RNA using the QuantiTect reverse transcription kit (QiagenInc., Valencia, Calif., USA).
Real-Time Quantitative Polymerase Chain Reaction (PCR) for cDNA. […]

Data set [2] addresses T1, recombinant human aromatase (CYP19) (Homo sapiens, UniProt P11511).
T1 construct: purchased BD Biosciences (San Jose, Calif.)
T1 sequence (P11511 1-503): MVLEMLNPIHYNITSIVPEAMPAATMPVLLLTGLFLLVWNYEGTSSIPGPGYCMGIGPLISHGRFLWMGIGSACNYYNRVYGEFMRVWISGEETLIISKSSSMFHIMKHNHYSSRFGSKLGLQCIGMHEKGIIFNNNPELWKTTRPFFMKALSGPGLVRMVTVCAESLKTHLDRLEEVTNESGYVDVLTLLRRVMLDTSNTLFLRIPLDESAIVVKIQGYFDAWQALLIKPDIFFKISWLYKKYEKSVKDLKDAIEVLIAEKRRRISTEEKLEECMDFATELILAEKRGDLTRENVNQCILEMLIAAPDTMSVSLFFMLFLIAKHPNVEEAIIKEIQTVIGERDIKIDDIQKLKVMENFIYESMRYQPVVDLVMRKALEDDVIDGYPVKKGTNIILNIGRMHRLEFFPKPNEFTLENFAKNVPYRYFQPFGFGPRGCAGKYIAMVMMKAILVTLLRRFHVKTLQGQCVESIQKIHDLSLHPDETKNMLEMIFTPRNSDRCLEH
In words: Inhibition of recombinant human aromatase (CYP19) by microsomal incubations (MFC fluorometric substrate). Format: biochemical. As for the experimental part: Inhibition of Recombinant Human Aromatase (CYP19) by Microsomal Incubations.
All tested samples were dissolved in either methanol or DMSO. […] All the reactions were stopped by adding 0.1 M tris base dissolved in acetonitrile (75 μL). […] The extent of enzyme inhibition was expressed as the percentage of remaining enzyme activity compared to the control.

Data set [3] concerns the target T2, recombinant human ER-α (Homo sapiens, UniProt P03372).
T2 construct: purchased Invitrogen (Carlsbad, Calif.)
T2 sequence (P03372 1-595): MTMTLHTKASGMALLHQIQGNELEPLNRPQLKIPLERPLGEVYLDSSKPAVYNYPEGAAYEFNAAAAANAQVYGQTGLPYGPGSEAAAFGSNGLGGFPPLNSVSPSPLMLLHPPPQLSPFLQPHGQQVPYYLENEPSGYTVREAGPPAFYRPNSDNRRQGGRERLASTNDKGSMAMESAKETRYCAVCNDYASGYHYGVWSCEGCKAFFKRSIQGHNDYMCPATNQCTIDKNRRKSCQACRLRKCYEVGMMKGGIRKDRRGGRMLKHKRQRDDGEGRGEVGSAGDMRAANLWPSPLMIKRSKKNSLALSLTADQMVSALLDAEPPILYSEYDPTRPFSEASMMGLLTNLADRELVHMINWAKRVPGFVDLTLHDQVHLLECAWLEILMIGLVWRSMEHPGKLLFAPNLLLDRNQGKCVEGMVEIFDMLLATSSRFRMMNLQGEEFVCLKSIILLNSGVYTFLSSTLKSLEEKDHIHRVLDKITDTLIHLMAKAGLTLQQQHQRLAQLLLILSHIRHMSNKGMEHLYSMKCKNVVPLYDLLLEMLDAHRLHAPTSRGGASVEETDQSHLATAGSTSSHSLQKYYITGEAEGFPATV
In words: Binding affinity for recombinant human ER-α (fluorescence polarization, ES2 displacement). As for the experimental part:
(§1) Binding Affinities for Recombinant Human ER-α and ER-β.
(§2) The binding affinities of ER-α and ER-β were determined by measuring the change of polarization value when the fluorescent estrogen ligand, ES2, was displaced by the tested compounds. Experimental procedures were consistent with the protocol provided by Invitrogen. The fluorescent estrogen ligand, ES2, was provided in methanol/water (4:1, v/v) with the concentration of 1800 nM. Recombinant human ER-α and ER-β were provided in buffer (50 mM bis-tris propane, 400 mM KCl, 2 mM DTT, 1 mM EDTA and 10% glycerol), with the concentration of 734 nM and 3800 nM, respectively. All tested samples were dissolved in either methanol or DMSO. The sample solutions (1 pt) were mixed well with 49 pt of ES2 screening buffer (100 mM potassium phosphate, 100 μg/mL BGG and 0.02% NaN3). The ER-α/ES2 complex was prepared with the fluorescent estrogen ligand ES2, human recombinant ER and ES2 screening buffer with the concentrations of 9 nM ES2 and 30 nM ER-α. The ER-β/ES2 complex was prepared with the fluorescent estrogen ligand ES2, human recombinant ER-β and ES2 screening buffer with the concentrations of 9 nM ES2 and 20 nM ER-ft Reactions were initiated by adding ER/ES2 complex (50 μL) to bring the incubation volume to 100 μL and incubated for 2 h avoiding light. […] Excitation-emission wavelengths for fluorescence polarization were […]. The polarization values in the presence of the test competitors were compared with those in control, in which the competitor was replaced with vehicle. The extent of competition was expressed as the percentage of remaining polarization compared to the control.
(In general: Fluorescence polarisation rises when a labelled molecule tumbles more slowly, as on binding a larger partner.)

Data set [4] has as its target T3, recombinant human ER-β (Homo sapiens, UniProt Q92731).
T3 construct: purchased Invitrogen (Carlsbad, Calif.)
Description: Binding affinity for recombinant human ER-β (fluorescence polarization, ES2 displacement). The conditions noted are these: Table 1; determined only for compounds with >90% competition. The protocol:
as §1, §2

For data set [5], the system named is postmenopausal women with breast cancer. Particulars: five-year ATAC trial; cited from earlier work.
Data set [6] relates to ER in MCF-7-2a cells. Particulars: in words; cited from earlier work.
Setting [7] is: Table 1, mean of at least three experiments.

SMILES strings stand for the structures.

T3 sequence (Q92731 whole entry): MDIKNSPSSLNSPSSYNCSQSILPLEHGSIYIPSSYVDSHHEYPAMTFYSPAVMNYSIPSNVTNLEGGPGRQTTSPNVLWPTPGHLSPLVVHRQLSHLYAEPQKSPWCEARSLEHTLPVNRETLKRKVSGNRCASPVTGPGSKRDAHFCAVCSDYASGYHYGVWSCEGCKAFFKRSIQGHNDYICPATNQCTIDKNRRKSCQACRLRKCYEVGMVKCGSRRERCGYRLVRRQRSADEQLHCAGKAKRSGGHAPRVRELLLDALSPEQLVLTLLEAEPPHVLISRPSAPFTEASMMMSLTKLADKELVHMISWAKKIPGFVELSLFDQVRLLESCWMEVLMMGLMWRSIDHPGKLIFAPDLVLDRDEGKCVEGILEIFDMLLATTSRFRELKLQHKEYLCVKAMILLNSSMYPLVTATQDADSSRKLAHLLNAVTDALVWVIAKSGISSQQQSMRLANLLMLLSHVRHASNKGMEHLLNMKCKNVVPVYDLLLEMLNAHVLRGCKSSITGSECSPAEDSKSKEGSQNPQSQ

As to `CC/C(=C(\c1ccc(O)cc1)c1ccc(OCCN)cc1)c1ccccc1` [(E,Z)-norendoxifen], the “PGR mRNA expression level in the presence of 10 nM E2” value in data set [1] was found to be 33%.
The same measure, in the same setting: the same measure for `CC/C(=C(\c1ccc(O)cc1)c1ccc(OCCNC)cc1)c1ccccc1` [Endoxifen]: 10%.
The IC50 is the midpoint of a concentration-inhibition curve. The melting point is the temperature of the solid-liquid transition. In turn, `N#CCC(=C(c1ccc(O)cc1)c1ccc(O)cc1)c1ccc(N)cc1` [Compound 25, 3-(4-Aminophenyl)-4,4-bis(4-hydroxyphenyl)but-3-enenitrile] displayed a melting point of 235 to 238 °C. The IC50 in data set [2] (setting [7]) is 36.3 ± 0.8 nM. Moreover, the ER-α percent competition in data set [3] (Table 1, at 100 μM compound) was found to be 0% competition.
Taken in the same sequence, the figures for `N#CCC(=C(c1ccc(O)cc1)c1ccc(O)cc1)c1ccc(O)c(F)c1` [Compound 17b, 3-(3-Fluoro-4-hydroxyphenyl)-4,4-bis(4-hydroxyphenyl)but-3-enenitrile] were 180 to 183 °C, 17200 ± 2200 nM and 0% competition.
For orientation: EC50 means the concentration at which the effect is half-maximal. In turn, `Oc1ccc(C(=C(Cn2ccnc2)c2ccccc2)c2ccc(O)cc2)cc1` [Compound 12, 4,4′-(3-(1H-Imidazol-1-yl)-2-phenylprop-1-ene-1,1-diyl)diphenol] showed a melting point of 225 to 227 °C. For the same compound, the IC50 in data set [2] (setting [7]) was 4.77 ± 0.38 nM. The “fold improvement/increase in aromatase inhibitory activity compared with 7” value in data set [2] (vs compound 7) is more than 5000 fold. Further, the EC50 in data set [3] (Table 1, determined only for compounds with >90% competition) turned out to be 27.3 nM. For the same compound, the EC50 in data set [4] worked out at 40.9 nM.
As for `Oc1ccc(C(=C(Cn2cncn2)c2ccccc2)c2ccc(O)cc2)cc1` [Compound 13, 4,4′-(2-Phenyl-3-(1H-1,2,4-triazol-1-yl)prop-1-ene-1,1-diyl)diphenol], the melting point lay in the range of 143 to 145 °C. Moreover, the IC50 in data set [2] (setting [7]) amounted to 137 nM. Moreover, the ER-α percent competition in data set [3] (Table 1, at 100 μM compound) is on record as 12% competition.
Take `CC(C)(C#N)c1cc(Cn2cncn2)cc(C(C)(C)C#N)c1` [anastrozole]: in data set [5], the “improvement of disease-free survival compared to tamoxifen” value was 13%, the “reduction in occurrence of contralateral breast cancer compared to tamoxifen” value is on record as 42%, the “reduction in risk of distant metastasis compared to tamoxifen” value is reported as 16% and the “reduction in the rate of recurrence compared to tamoxifen” value is reported as 21%.
With `CCC(=C(c1ccc(O)cc1)c1ccc(O)cc1)c1ccccc1` [Compound 7, reference compound], the IC50 in data set [2] (Table 2, determined for compounds with inhibition higher than 90%) amounted to 24900 ± 1400 nM. The ER-α percent competition in data set [3] (Table 2, at 100000 nM compound) was found to be 80% competition. Moreover, the EC50 in data set [4] is 307 ± 106 nM. Besides, in data set [6], the “ER antagonism / agonism in MCF-7-2a cells” value is “good ER antagonist without significant agonistic side effects”.
Consider `N#CCC(=C(c1ccc(O)cc1)c1ccc(O)cc1)c1ccccc1` [Compound 11, 4,4-Bis(4-hydroxyphenyl)-3-phenylbut-3-enenitrile], for which the melting point was 198 to 200 °C. Also, the IC50 in data set [2] (setting [7]) turned out to be 12800 nM. The ER-α percent competition in data set [3] (Table 1, at 100 μM compound) is 56% competition.

The values are drawn from patent US9845295B2, “Triphenylethylene compounds and uses thereof” (Purdue Research Foundation, priority 2015, dated 2017).
